Test results: US7232690B1, “Method and device for detecting and isolating pharmacological compounds being contained in substance mixtures” (LTS Lohmann Therapie-Systeme AG, priority 1999, dated 2007)
One block for each molecule: values may come before it.

How the values were obtained:
[1] = system: serine protease trypsin; assay: Ultrafiltration target-binding test of non-equimolar amidinophenylalanine mixture with trypsin (Example 2); details: applied 6 8.4, 7 41.25, 10 2.5 μmol/l
Description: Incubation of the substance library and the inhibitor with thrombin took place at room temperature within 1 hour; solvent: 0.9% of NaCl in H2O. The separation of the protein-ligand complexes formed was accomplished by ultrafiltration (centrifugal). All filtration procedures and washes were carried out until dryness of the filters.
Filter: Microcon 10 (Amicon)
Centrifugation conditions: 9981×g, room temperature
Washing steps: 2×, each with 150 μl of 0.9% NaCl in H2O, 4° C.
Ultrafiltration and analysis of the filtrate were followed by washing steps and the liberation of the ligand (the active chemical substance) from the protein-ligand complex retained on the filter by treatment with 200 μl of water/methanol/TFA (49.5/49.5/1) at room temperature.
The blind sample (without thrombin) was treated analogously in all steps so that a comparison of the filtrates was possible. The filtrates obtained in all steps were dried by means of a speed-VAC concentrator, and later dissolved in the corresponding HPLC flow agent of defined amount applying ultrasound and agitation.
Identification of the ligands was accomplished by analytic HPLC: stationary phase Hypersil C 18 BDS, 3 μm, 150*0.3 mm, Fusica (LC Packings)—mobile phase: acetonitrile/water/TFA (35/65/0.01), isocratic, 5 μL/min, λ=[…].
The trypsin inhibitors of 3-amidinophenylalanine represented in the following by their structural formulae, were used as chemical substances, and the serine protease trypsin as target:
The experiments were performed as described in Example 1.

[2] = target: Thrombin (Homo sapiens, UniProt P00734); assay: Thrombin inhibition constant (Ki); type: biochemical; details: read-out: Ki [μmol/l] Thrombin
[3] = target: β2-adrenoreceptor (Homo sapiens, UniProt P07550); assay: Ultrafiltration target-binding test of extract of taraxacum with β2-adrenoreceptor membrane preparation (Example 3)
Sequence of β2-adrenoreceptor (P07550 whole entry): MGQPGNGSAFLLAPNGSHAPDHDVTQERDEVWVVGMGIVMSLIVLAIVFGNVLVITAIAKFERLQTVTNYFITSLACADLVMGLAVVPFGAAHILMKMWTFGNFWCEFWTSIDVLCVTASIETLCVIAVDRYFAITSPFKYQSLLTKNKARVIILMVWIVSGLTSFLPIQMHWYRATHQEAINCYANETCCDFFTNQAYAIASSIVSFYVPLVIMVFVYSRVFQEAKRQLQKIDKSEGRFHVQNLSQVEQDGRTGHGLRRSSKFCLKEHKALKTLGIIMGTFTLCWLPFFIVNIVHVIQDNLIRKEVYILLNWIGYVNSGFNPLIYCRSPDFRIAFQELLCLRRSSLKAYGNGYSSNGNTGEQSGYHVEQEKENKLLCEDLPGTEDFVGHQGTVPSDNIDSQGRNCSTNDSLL

[4] = Sample 351, no receptor, extract 1.5 mg (7.5 g/l)
[5] = Sample 355, receptor 1.04 pmol (5.2 nmol/l), extract 1.5 pmol (7.5 nmol/l)
[6] = Sample 356, receptor 1.04 pmol (5.2 nmol/l), extract 1.5 pmol (7.5 nmol/l)
[7] = Sample 360, no receptor, extract 0.3 mg (1.5 g/l)
[8] = Sample 361, receptor 1.04 pmol (5.2 nmol/l), extract 0.3 mg (1.5 g/l)
[9] = Sample 362, no receptor, extract 0.6 mg (3 g/l)
[10] = Sample 363, receptor 1.04 pmol (5.2 nmol/l), extract 0.6 mg (3 g/l)
[11] = Sample 364, no receptor, extract 1.0 mg (5.0 g/l)
[12] = Sample 365, receptor 1.04 pmol (5.2 nmol/l), extract 1.0 mg (5.0 g/l)
[13] = Sample 366, receptor 1.04 pmol (5.2 nmol/l), extract 1.5 mg (7.5 g/l)
[14] = Sample 367, receptor 1.04 pmol (5.2 nmol/l), extract 1.5 mg (7.5 g/l)
[15] = Sample 369, receptor 1.04 pmol (5.2 nmol/l), extract 1.5 mg (7.5 g/l)
[16] = Sample 373, receptor 1.04 pmol (5.2 nmol/l), extract 1.5 mg (7.5 g/l)
[17] = Sample 374, receptor 0.52 pmol (2.6 nmol/l), extract 1.5 mg (7.5 g/l)
[18] = Sample 375, receptor 0.26 pmol (1.3 nmol/l), extract 1.5 mg (7.5 g/l)

- 1st Wash ([1]; Sample 261, without trypsin): 3.13 µmol/L
- 2nd Wash ([1]; Sample 261, without trypsin): 0.26 µmol/L
- Filtrate ([1]; Sample 261, without trypsin): 31.57 µmol/L
- Liberation ([1]; Sample 261, without trypsin): 0.13 µmol/L
- 1st Wash ([1]; Sample 262, trypsin 50 μmol/l): 3.68 µmol/L
- 2nd Wash ([1]; Sample 262, trypsin 50 μmol/l): 1.29 µmol/L
- Filtrate ([1]; Sample 262, trypsin 50 μmol/l): 22.22 µmol/L
- Liberation ([1]; Sample 262, trypsin 50 μmol/l): 8.49 µmol/L
- Ki [2]: 0.065 µmol/L
SMILES: N=C(N)c1cccc(CC(NS(=O)(=O)c2ccc3ccccc3c2)C(=O)N2CCCCC2)c1 (stereo not drawn) [Substance 7]

SMILES: COc1cc(/C=C/C(=O)OC(C(=O)O)C(OC(=O)/C=C/c2ccc(O)c(OC)c2)C(=O)O)ccc1O (stereo not drawn) [Substance L7, trans-diferoyl-tartaric acid ester]
- 1st Wash [3, 4]: 748.2 nmol/L
- 2nd Wash [3, 4]: 145.5 nmol/L
- Filtrate [3, 4]: 3802.1 nmol/L
- Liberation [3, 4]: 22.7 nmol/L
- 1st Wash [3, 5]: 909.9 nmol/L
- 2nd Wash [3, 5]: 180.4 nmol/L
- Filtrate [3, 5]: 1539.6 nmol/L
- Liberation [3, 5]: 214.5 nmol/L
- 1st Wash [3, 6]: 1117.4 nmol/L
- 2nd Wash [3, 6]: 295.9 nmol/L
- Filtrate [3, 6]: 2183.1 nmol/L
- Liberation [3, 6]: 510.7 nmol/L
- 1st Wash [3, 7]: 129.6 nmol/L
- 2nd Wash [3, 7]: 6.6 nmol/L
- Filtrate [3, 7]: 1268.8 nmol/L
- Liberation [3, 7]: 8.6 nmol/L
- 1st Wash [3, 8]: 129.6 nmol/L
- 2nd Wash [3, 8]: 6.6 nmol/L
- Filtrate [3, 8]: 1268.8 nmol/L
- Liberation [3, 8]: 8.6 nmol/L
- 1st Wash [3, 9]: 176.5 nmol/L
- 2nd Wash [3, 9]: 33.7 nmol/L
- Filtrate [3, 9]: 1423.2 nmol/L
- Liberation [3, 9]: 7.5 nmol/L
- 1st Wash [3, 10]: 76.4 nmol/L
- 2nd Wash [3, 10]: 104.2 nmol/L
- Filtrate [3, 10]: 1740.7 nmol/L
- Liberation [3, 10]: 16.9 nmol/L
- 1st Wash [3, 11]: 92.7 nmol/L
- 2nd Wash [3, 11]: 30.1 nmol/L
- Filtrate [3, 11]: 1829.6 nmol/L
- Liberation [3, 11]: 89.6 nmol/L
- 1st Wash [3, 12]: 74.0 nmol/L
- 2nd Wash [3, 12]: 11.2 nmol/L
- Filtrate [3, 12]: 2746.8 nmol/L
- Liberation [3, 12]: 111.9 nmol/L
- 1st Wash [3, 13]: 1425.3 nmol/L
- 2nd Wash [3, 13]: 213.1 nmol/L
- Filtrate [3, 13]: 4261.6 nmol/L
- Liberation [3, 13]: 168.2 nmol/L
- 1st Wash [3, 14]: 1509.0 nmol/L
- 2nd Wash [3, 14]: 199.2 nmol/L
- Filtrate [3, 14]: 6243.7 nmol/L
- Liberation [3, 14]: 232.9 nmol/L
- 1st Wash [3, 15]: 986.8 nmol/L
- 2nd Wash [3, 15]: 221.7 nmol/L
- Filtrate [3, 15]: 3505.8 nmol/L
- Liberation [3, 15]: 378.7 nmol/L
- 1st Wash [3, 16]: 1176.5 nmol/L
- 2nd Wash [3, 16]: 285.4 nmol/L
- Filtrate [3, 16]: 4900.2 nmol/L
- Liberation [3, 16]: 847.8 nmol/L
- 1st Wash [3, 17]: 627.7 nmol/L
- 2nd Wash [3, 17]: 200.9 nmol/L
- Filtrate [3, 17]: 5661.6 nmol/L
- Liberation [3, 17]: 538.8 nmol/L
- 1st Wash [3, 18]: 631.3 nmol/L
- 2nd Wash [3, 18]: 112.3 nmol/L
- Filtrate [3, 18]: 4921.4 nmol/L
- Liberation [3, 18]: 154.4 nmol/L
